This is an account of results in patent US11702422B2, “Imidazopyridazines as modulators of IL-17” (Janssen Pharmaceutica NV, priority 2020, dated 2023).

The target in assay [1] is IL-17A(FLAG-Tagged): IL-17RA(His-Tagged) (Homo sapiens, UniProt Q16552, K93Q). Briefly: IL-17A(FLAG-Tagged): IL-17RA(His-Tagged) Binding Disruption Eu-HTRF Assay. The conditions noted are these: IL-17A/IL-17RA binding disruption, simple average if tested more than once. The procedure, abridged:
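IC50 comes from a one-site competition fit of the HTRF 665/620 nm ratio. Compound dilutions (2-fold, 22 points) were held 1 h rt with FLAG-tagged IL-17A dimer, then His-tagged IL-17RA plus Eu-cryptate anti-FLAG and D2 anti-His antibodies were added for 2 h rt.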

The subject of assay [2] is IL-17A-induced G-CSF production in human normal keratinocyte (NHK). Briefly: NHK Assay: IL-17A-induced G-CSF production in human normal keratinocytes. In kind it is cell-based. To be noted: 24 h, adult normal human keratinocytes, IL-17A 5 ng/mL, simple average if tested more than once. The procedure, abridged:
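IL-17A (5 ng/mL final) was pre-incubated 1 h at rt with titrated compound and then added to adult normal human keratinocytes (5% FBS, 0.2% DMSO) for 24 h at 37° C. Supernatant G-CSF was measured by HTRF against a standard curve to derive IC50. Viability was checked by CellTiter-Glo.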

The structures appear in SMILES notation.

What is called IC50 is the concentration at which inhibition is half-maximal. A higher IC50 goes with weaker potency in that assay.

UniProt Q16552, sequence (Q16552 with tags, fused parts or gaps K93Q): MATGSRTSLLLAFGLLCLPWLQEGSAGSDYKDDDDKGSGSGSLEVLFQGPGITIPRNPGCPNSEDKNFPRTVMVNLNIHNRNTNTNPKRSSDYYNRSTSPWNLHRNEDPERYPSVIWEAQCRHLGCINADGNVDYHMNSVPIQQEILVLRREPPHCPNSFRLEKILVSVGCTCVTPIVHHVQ

Regarding `O=C(CC1CC(F)(F)C1)N[C@@H](c1cnn2cc([C@@H](NC(=O)c3conc3COC(F)F)C3CCC(F)(F)CC3)nc2c1)C1CC1` [Example 294, N—((S)-(7-((R)-Cyclopropyl(2-(3,3-difluorocyclobutyl)acetamido)methyl)imidazo[1,2-b]pyridazin-2-yl)(4,4-difluorocyclohexyl)methyl)-3-((difluoromethoxy)methyl)isoxazole-4-carboxamide], the IC50 is 86 nM in assay [1] and 38 nM in assay [2] (Homo sapiens, Keratinocyte).
Taken in the same sequence, the figures for `Nc1nonc1C(=O)N[C@H](c1cn2ncc([C@H](NC(=O)CCC(F)(F)F)C3CC3)cc2n1)C1CCC(F)(F)CC1` [Example 370, 4-Amino-N—((S)-(7-((R)-cyclopropyl(4,4,4-trifluorobutanamido)methyl)imidazo[1,2-b]pyridazin-2-yl)(4,4-difluorocyclohexyl)methyl)-1,2,5-oxadiazole-3-carboxamide] were 140 nM and 470 nM.
Taken in the same sequence, the figures for `COc1ccnc(C(=O)N[C@H](c2cn3ncc([C@H](NC(=O)CCC(F)(F)F)C4CC4)cc3n2)C2CCC(F)(F)CC2)c1` [Example 196, N—((S)-(7-((R)-Cyclopropyl(4,4,4-trifluorobutanamido)methyl)imidazo[1,2-b]pyridazin-2-yl)(4,4-difluorocyclohexyl)methyl)-4-methoxypicolinamide] were 480 nM and 1700 nM.
The corresponding values for `CC(F)(F)Cn1ncnc1C(=O)N[C@H](c1cn2ncc([C@H](NC(=O)CCC(F)(F)F)C3CC3)cc2n1)C1CCC(F)(F)CC1` [Example 477, N—((S)-(7-((R)-Cyclopropyl(4,4,4-trifluorobutanamido)methyl)imidazo[1,2-b]pyridazin-2-yl)(4,4-difluorocyclohexyl)methyl)-1-(2,2-difluoropropyl)-1H-1,2,4-triazole-5-carboxamide] are 290 nM and 1400 nM.
`COCc1cncc(C(=O)N[C@H](c2cn3ncc([C@H](NC(=O)CCC(F)(F)F)C4CC4)cc3n2)C2CCC(F)(F)CC2)c1` [Example 462, N—((S)-(7-((R)-Cyclopropyl(4,4,4-trifluorobutanamido)methyl)imidazo[1,2-b]pyridazin-2-yl)(4,4-difluorocyclohexyl)methyl)-5-(methoxymethyl)nicotinamide]: the IC50 in assay [1] came out at 140 nM; in assay [2] (Homo sapiens, Keratinocyte), 1100 nM.
The corresponding values for `O=C(CCC(F)F)N[C@@H](c1cnn2cc([C@@H](NC(=O)c3conc3COC(F)F)C3CCC(F)(F)CC3)nc2c1)C1CC1` [Example 287, N—((S)-(7-((R)-Cyclopropyl(4,4-difluorobutanamido)methyl)imidazo[1,2-b]pyridazin-2-yl)(4,4-difluorocyclohexyl)methyl)-3-((difluoromethoxy)methyl)isoxazole-4-carboxamide] are 140 nM and 410 nM.
As for `O=C(CCC(F)(F)F)N[C@@H](c1cnn2cc([C@@H](NC(=O)c3cncc(F)c3)C3CCC(F)(F)CC3)nc2c1)C1CC1` [Example 451, N—((S)-(7-((R)-Cyclopropyl(4,4,4-trifluorobutanamido)methyl)imidazo[1,2-b]pyridazin-2-yl)(4,4-difluorocyclohexyl)methyl)-5-fluoronicotinamide], the 50% inhibitory concentration (IC50) in assay [1] worked out at 120 nM; in assay [2] (Homo sapiens, Keratinocyte) it was 830 nM.
The corresponding values for `CC(C)n1nccc1C(=O)N[C@H](c1cn2ncc([C@H](NC(=O)CC(C)(C)C(F)F)C3CC3)cc2n1)C1CCC(F)(F)CC1` [Example 313, N—((S)-(7-((R)-Cyclopropyl(4,4-difluoro-3,3-dimethylbutanamido)methyl)imidazo[1,2-b]pyridazin-2-yl)(4,4-difluorocyclohexyl)methyl)-1-isopropyl-1H-pyrazole-5-carboxamide] are 160 nM and 480 nM.
The corresponding values for `O=C(CCC(F)(F)F)N[C@@H](c1cnn2cc([C@@H](NC(=O)c3cncc(N4CCCC4=O)c3)C3CCC(F)(F)CC3)nc2c1)C1CC1` [Example 176, N—((S)-(7-((R)-Cyclopropyl(4,4,4-trifluorobutanamido)methyl)imidazo[1,2-b]pyridazin-2-yl)(4,4-difluorocyclohexyl)methyl)-5-(2-oxopyrrolidin-1-yl)nicotinamide] are 110 nM and 420 nM.
For the compound `Cc1ncoc1C(=O)N[C@H](c1cn2ncc([C@H](NC(=O)CCC(F)(F)F)C3CC3)cc2n1)C1CCC(F)(F)CC1` [Example 471, N—((S)-(7-((R)-Cyclopropyl(4,4,4-trifluorobutanamido)methyl)imidazo[1,2-b]pyridazin-2-yl)(4,4-difluorocyclohexyl)methyl)-4-methyloxazole-5-carboxamide], the IC50 in assay [1] was determined as 380 nM; in assay [2] (Homo sapiens, Keratinocyte), 2300 nM.
The corresponding values for `O=C(CCC(F)(F)F)N[C@@H](c1cnn2cc([C@@H](NC(=O)c3cnnn3CC3CC3(F)F)C3CCC(F)(F)CC3)nc2c1)C1CC1` (stereo partly drawn) [Example 92, N—((S)-(7-((R)-Cyclopropyl(4,4,4-trifluorobutanamido)methyl)imidazo[1,2-b]pyridazin-2-yl)(4,4-difluorocyclohexyl)methyl)-1-((2,2-difluorocyclopropyl)methyl)-1H-1,2,3-triazole-5-carboxamide] are 110 nM and 140 nM.
Taken in the same sequence, the figures for `C[C@@H](CC(=O)N[C@@H](c1cnn2cc([C@@H](NC(=O)[C@@H]3C[C@H]3C(F)(F)F)C3CCC(F)(F)CC3)nc2c1)C1CC1)C(F)(F)F` (relative stereo) [Example 242, (trans-1R*,2R*)—N—((S)-(7-((R)-Cyclopropyl((S*)-4,4,4-trifluoro-3-methylbutanamido)methyl)imidazo[1,2-b]pyridazin-2-yl)(4,4-difluorocyclohexyl)methyl)-2-(trifluoromethyl)cyclopropane-1-carboxamide] were 1300 nM and 790 nM.
For `CC(C)n1nccc1C(=O)N[C@H](c1cn2ncc([C@H](NC(=O)COC3CC3)C3CC3)cc2n1)C1CCC(F)(F)CC1` [Example 307, N—((S)-(7-((R)-(2-Cyclopropoxyacetamido)(cyclopropyl)methyl)imidazo[1,2-b]pyridazin-2-yl)(4,4-difluorocyclohexyl)methyl)-1-isopropyl-1H-pyrazole-5-carboxamide], the IC50 in assay [1] was 110 nM; in assay [2] (Homo sapiens, Keratinocyte), 420 nM.
The corresponding values for `CC(C)n1nccc1C(=O)N[C@H](c1cn2ncc([C@H](NC(=O)CC3CCC3)C3CC3)cc2n1)C1CCC(F)(F)CC1` [Example 246, N—((S)-(7-((R)-(2-Cyclobutylacetamido)(cyclopropyl)methyl)imidazo[1,2-b]pyridazin-2-yl)(4,4-difluorocyclohexyl)methyl)-1-isopropyl-1H-pyrazole-5-carboxamide] are 90 nM and 41 nM.
The corresponding values for `COCC(NC(=O)CC1CC(F)(F)C1)c1cnn2cc([C@H](COC(C)(C)C(F)(F)F)NC(=O)c3ccnn3C(C)C)nc2c1` (single isomer, unassigned) [Example 539, N—((R)-1-(7-((S*)-1-(2-(3,3-Difluorocyclobutyl)acetamido)-2-methoxyethyl)imidazo[1,2-b]pyridazin-2-yl)-2-((1,1,1-trifluoro-2-methylpropan-2-yl)oxy)ethyl)-1-isopropyl-1H-pyrazole-5-carboxamide] are 130 nM and 78 nM.
Taken in the same sequence, the figures for `CCn1nccc1C(=O)N[C@H](c1cn2ncc([C@H](NC(=O)CC3CC(F)(F)C3)C3CC3)cc2n1)C1CCC(F)(F)CC1` [Example 126, N—((S)-(7-((R)-Cyclopropyl(2-(3,3-difluorocyclobutyl)acetamido)methyl)imidazo[1,2-b]pyridazin-2-yl)(4,4-difluorocyclohexyl)methyl)-1-ethyl-1H-pyrazole-5-carboxamide] were 46 nM and 84 nM.
Regarding `CC(C)n1ncnc1C(=O)N[C@H](c1cn2ncc([C@H](NC(=O)CCC(F)(F)F)C3CC3)cc2n1)C1CCC(F)(F)CC1` [Example 483, N—[(S)-[7-[(R)-Cyclopropyl-(4,4,4-trifluorobutanamido)methyl]imidazo[1,2-b]pyridazin-2-yl]-(4,4-difluorocyclohexyl)methyl]-2-isopropyl-1,2,4-triazole-3-carboxamide], the IC50 is 75 nM in assay [1] and 380 nM in assay [2] (Homo sapiens, Keratinocyte).
The corresponding values for `Cc1nonc1C(=O)N[C@H](c1cn2ncc([C@H](NC(=O)CC(C)C(F)(F)F)C3CC3)cc2n1)C1CCC(F)(F)CC1` (single isomer, unassigned) [Example 243, N—((S)-(7-((R)-Cyclopropyl((R*)-4,4,4-trifluoro-3-methylbutanamido)methyl)imidazo[1,2-b]pyridazin-2-yl)(4,4-difluorocyclohexyl)methyl)-4-methyl-1,2,5-oxadiazole-3-carboxamide] are 89 nM and 270 nM.
Regarding `Cc1nonc1C(=O)N[C@H](c1cn2ncc([C@H](NC(=O)C(F)C3CCC3)C3CC3)cc2n1)C1CCC(F)(F)CC1` (single isomer, unassigned) [Example 349, N—((S)-(7-((R)-((S*)-2-Cyclobutyl-2-fluoroacetamido)(cyclopropyl)methyl)imidazo[1,2-b]pyridazin-2-yl)(4,4-difluorocyclohexyl)methyl)-4-methyl-1,2,5-oxadiazole-3-carboxamide], the IC50 is 420 nM in assay [1] and 1700 nM in assay [2].
